SMILES strings stand for the structures. Entries after “also recorded” stand apart in the source; their conditions may differ.

The text below walks through data of patent US20170197977A9, “COMPOSITIONS AND METHODS FOR TREATING NEURODEGENERATIVE DISEASE” (COGNITION THERAPEUTICS, INC., priority 2011, published 2017).

Data set [1] addresses T1, sigma 2 (agonist radioligand) (Rattus norvegicus, UniProt Q5U3Y7).
T1 sequence (Q5U3Y7 1-176): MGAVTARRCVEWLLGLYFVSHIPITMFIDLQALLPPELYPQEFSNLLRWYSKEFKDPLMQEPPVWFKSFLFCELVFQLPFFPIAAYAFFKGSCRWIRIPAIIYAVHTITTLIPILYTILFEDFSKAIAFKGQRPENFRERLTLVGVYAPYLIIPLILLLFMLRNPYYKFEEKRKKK
Put plainly: Receptor binding assay, displacement of known radioligand. To be noted: read-out: % Inhibition of Control.

A further data set has as its system 100 known receptors. Put plainly: Test for action at 100 known receptors. It is filed as binding, human. The conditions noted are these: 10 μM. The procedure: It was also tested for its ability to block downstream signaling induced by agonists or antagonists of a given human receptor.
Data set [2] has as its system Abeta oligomer binding to neurons. Put plainly: Abeta 1-42 oligomer binding assay in primary neurons. The data set is classed as cell-based, rat. The procedure:
(§1) In this assay, Abeta oligomers were brought in contact with mature primary neurons in culture and their binding was determined by immunohistochemistry (anti-Abeta antibody) and quantified by image processing. The amount of Abeta in neuronal dendrites is assessed by counting the number of labeled puncta on the neuritis. […] This labeling is associated with synapses, co-localizing with the post-synaptic scaffold protein PSD-95 (Lacor et al., '04). […] The number of synapses can also be quantified in this assay by immunofluorochemistry. Similar procedures for binding assays can be found in the literature. […] Review.
(§2) Primary hippocampal neuronal culture was established as in the membrane trafficking assay above. […] Pretreatment with compounds to be tested lasted for 1 hr and addition of Abeta oligomers or no oligomer (vehicle alone) in a final concentration of 70 ul was followed by incubation for an additional 23 hrs.
(§3) The plates were then washed 3× with PBS for 5 min each. The plates were blocked at RT for 1 hr in 5% goat serum and 0.5% Triton X-100 in PBS. […] Primary antibodies were incubated overnight at 4° C. The plates were then washed 3× with PBS for 5 min each. […] Secondary antibodies were incubated at RT for 1 hr. The plates were washed once with PBS. DAPI (4′,6-diamidino-2-phenylindole, Invitrogen) was then applied at 0.03 ug/ul and incubated at RT for 5 min, then washed with PBS.
(§4) Images were captured and analyzed with the Cellomics VTI automated microscope platform, using the Neuronal Profiling algorithm. For statistical analysis, a Tukey-Kramer pair-wise comparison with unequal variance was used.

The subject of data set [3] is Abeta oligomer-induced synapse loss. Put plainly: Synapse loss assay (synaptophysin puncta) in primary neurons. It is filed as cell-based, rat. The procedure:
as §1, §2, §3, §4

The test system of data set [4] is Abeta oligomer-induced memory deficits in wt C57BL/6 mice. Put plainly: Contextual fear conditioning after intrahippocampal Abeta oligomer injection. The data set is classed as in vivo, mouse. The procedure: Abeta oligomers (single 200 nanoMolar intrahippocampal injection) produced significant deficits in memory formation in 3-4 month old male wt C57BL/6 mice (N=16) compared to vehicle (N=18).
Several pharmaceutical companies use this same model in their discovery efforts. Contextual fear conditioning is an accepted model of associative memory formation which correlates to human cognitive function and specifically the creation of new (Delgado '06). Abeta oligomers are injected into the hippocampus of wild-type animals immediately before conditioning training and memory is assessed via freezing behavior after 24 hours. Details are provided in Example 9. […] This model system was chosen because intrahippocampal administration of oligomers allows rapid comparative assessment of compound activity and off-target toxicity. The results are shown graphically in FIG. 4.
Compound II was tested in an animal model of a memory-dependent behavioral task known as fear conditioning. The study protocol was designed based on published protocols (See e.g. Puzzo D, Privitera L, Leznik E, Fà M, Staniszewski A, Palmeri A, Arancio O. Picomolar amyloid-beta positively modulates synaptic plasticity and memory in hippocampus. J. Neurosci. 2008 Dec. 31; 28(53):14537-45.). The formation of contextual memories is dependent upon the integrity of medial temporal lobe structures such as the hippocampus. […]

Another data set concerns sigma-2 receptor. As to the kind of experiment: Autoradiography, displacement of [3H]-RHM-1 in brain sections. The data set is classed as binding. To be noted: 1 μM; monkey frontal cortex, monkey hippocampus, human temporal cortex. Background: In a radioligand displacement assay an active substance lowers the binding of a labelled ligand.
The subject of data set [5] is caspase-3 activity in SKOV-3 human ovarian cancer cells. As to the kind of experiment: Caspase-3 activity assay in tumor cells. The data set is classed as cell-based.
Data set [6] concerns neurons and glia in culture. Put plainly: In vitro neuronal and glial toxicity, acute or chronic dosing. It is filed as cell-based. To be noted: up to 50 μM, three days.
In another data set the test system is CYP2D6, CYP3A4, CYP2C19. Put plainly: in vitro.

Description for sigma-2 receptor: Brain sections in 20 μM thickness from rats, rhesus monkeys and postmortem human brains were cut using with a Microm cryotome and mounted on superfrost plus glass slides (Fisher Scientific, Pittsburgh, Pa.)., and serial sections through the brain regions of cerebral cortex and hippocampus were used in this study.
Slides were dried and made conductive by coating with a copper foil tape on the free side and then placed in the gas chamber [mixture of argon and triethylamine (Sigma-Aldrich, USA)] of a gaseous detector, the Beta Imager 2000Z Digital Beta Imaging System (Biospace, France). […] [^3H]Microscale (American Radiolabeled Chemicals, Inc., St. Louis, Mo.) was counted at the same time as a reference for total radioactivity quantitative analysis, i.e., to convert the cpm/mm2 to nCi/mg tissue. Quantitative analysis was performed with the program Beta-Image Plus (BioSpace, France) for the anatomical regions of interest (ROI), i.e., to obtain the quantitative radioactivity uptake (cpm/nlln2) in the regions of cortex and hippocampus. The binding density was normalized to fmol/mg tissue based on the specific activities of the corresponding radioligands and calibration curve from the standard [^3H]Microscale.

Turning to `COc1cc(CCC(C)NCc2ccc(C(F)(F)F)cc2)ccc1O` (stereo not shown) [Compound II], the inhibition at 10 µM in data set [1] came out at 89%. Also, in the data set with 100 known receptors, the “Number of receptors with activity >50% (assay window) out of 100” value worked out at 5. Besides, the Abeta binding result in data set [2] (Compound II 15 uM) is listed as “reduced to essentially control levels”. Also, the “Reduction of Abeta binding intensity (Abeta labeled puncta)” value in data set [2] (FIG. 3D) is recorded as 18%. In addition, the “Partial block of binding of the Abeta oligomer ligand to neurons” value in [2] (imaging processing algorithm) is given as “about 25%”. In data set [3] (5 μM of compound), the “Share of Abeta oligomer-induced synapse loss eliminated” value is 100%. In data set [3] (Table 10B), this molecule came in with a Block synapse loss of 100%. Besides, the “Synapse number when dosed without Abeta oligomers” value in data set [3] (compound in vehicle alone) is listed as “No effect”. In addition, the “Abeta oligomer-induced synapse loss” value in data set [3] (in words) is recorded as “completely eliminated this synaptic regression”. In data set [4] (no Abeta oligomer), the “Memory performance when dosed alone” value is “no effect of compounds alone”. Moreover, the “Abeta oligomer-induced memory deficits (freezing behavior 24 hours post-training)” value in data set [4] (single intrahippocampal injection one hour prior to oligomers (2 microMolar, b68; 2 pmol dose)) is recorded as “completely blocked oligomer-mediated memory deficits; also recorded: eliminated memory deficits”. The “Displacement of 18.4 nM [3H]-RHM-1” value with sigma-2 receptor is recorded as “partially displace”. For the same molecule, in [5], the “Block of caspase-3 activation caused by sigma-2 receptor agonist SV-119” value was “do not block caspase-3 activation” and the “Induction of caspase-3 activity” value is “did not induce caspase-3 activity”. Further, in [6], the “Toxicity (neuron number, glial number, nuclear size, nuclear morphology, neurite length, cytoskeletal morphology)” value is reported as “no toxicity”. In addition, in the data set with CYP2D6, CYP3A4, CYP2C19, the inhibition at 10 µM lay within 46 to 73%.

As usually defined, the inhibition is the percentage by which the read-out fell short of the control.
